# Measurements: article PMC11959706, “Allatostatin-C signaling in the crab Carcinus maenas is implicated in the ecdysis program” (The Journal of Experimental Biology, 2025)
# Entries after “also recorded” stand apart in the source; their conditions may differ. Bridge positions count the residues as written; N and C are the ends. Ends that are not written are not given here.
# What was measured:
# AST-CRd (TR71151) = assay: Aequorin luminescence receptor assay, CHO-K1-Aeq-Gα16 cells transiently expressing AST-CRd; format: cell-based, Carcinus maenas
# Text: (§1) The transcriptome of neural tissue of C. maenas, which has been previously assembled ([Oliphant et al., 2018]), identified four putative AST-C receptor candidates: TR71151a-d ([Oliphant et al., 2018]). These were chemically synthesized with a modified 5′ Kozak sequence (GAATTCGCCACC) and cloned in frame into a pcDNA3.1(+) plasmid vector (Genscript, Piscataway, NJ, USA). Separate aliquots of OneShot TOP10® E. coli cells (Invitrogen, Paisley, UK) were transformed with the plasmids and grown on LB plates containing 100 µg ml^−1 ampicillin overnight at 37°C. Positive clones were cultured overnight in LB broth with 100 µg ml^−1 ampicillin at 37°C and plasmids extracted using a Qiagen Plasmid Midiprep kit according to the manufacturer's instructions. Purified plasmids were re-sequenced (MWG Eurofins, Ebersberg, Germany) and analyzed using Geneious 9.1.8 ([Kearse et al., 2012]).
# Chinese hamster ovary (CHO-K1) cells containing stably expressed apoaequorin (Perkin Elmer, Boston, MA) and either Gα16 or Gq subunit (control cells) were cultured in Dulbecco's Modified Eagle Medium (DMEM) F-12 Nutrient Mixture Glutamax (Gibco®) supplemented with 10% fetal bovine serum (Gibco®). Cells were maintained in vented T75 flasks at 37°C in 5% CO2. Cells grown in a monolayer to approximately 60% confluency were transfected with pcDNA 3.1 constructs using FugeneHD® (Promega) according to the manufacturer's recommendations. Transfection medium was prepared by combining 800 µl Opti-MEM® (Gibco) with 10 µg vector and the cells further incubated overnight. Cells were detached from the culture flask by incubating for 10 min in 5 ml 0.2% EDTA in PBS, washed in 10 ml clear DMEM–F-12 containing L-glutamine and 15 mmol l^−1 HEPES, centrifuged (for 5 min at 260 g) and resuspended at a concentration of 5×10^6 cells ml^−1 in 0.2 µm filtered BSA medium (DMEM–F-12 containing L-glutamine, 15 mmol l^−1 HEPES and 0.1% BSA). Coelenterazine h (Invitrogen, Paisley, UK) was added to give a concentration of 5 µmol l^−1, and the cells incubated in the dark at room temperature with gentle rocking. Before the assay, cells were further diluted (10-fold) and incubated for 60 min before use. Dried aliquots of peptides were reconstituted in BSA medium, and 50 µl added in quadruplicate to a white 96-well plate (Optiplate®, Perkin Elmer). Cell suspensions were gently stirred and injected (50 µl per well) using a Mithras LB 940 microplate reader (Berthold Technologies, Bad Wildbad, Germany) and light emission (Ca^2+ response recorded for 30 s). Cells were then lysed by injection of 50 µl per well 0.3% Triton-X in BSA medium, and light emission recorded for a further 10 s to measure total Ca^2+ response. BSA medium was used for blank measurements (six replicates per plate) and transfection with empty vectors was used for negative controls. Data were analyzed using Mikrowin 2010 v5 (Mikrotek Laborsysteme, Overath, Germany) and SigmaPlot v15 (Systat Software, Grafiti, Slough, UK).
# [1] = test system: semi-isolated heart preparations; assay: Semi-isolated heart preparation bioassay; set-up: species or system Carcinus maenas; details: 10^−6 mol l^−1 in saline, 20°C, recorded about 2 min; four preparations
# Text: To determine possible myotropic and/or myoinhbitory activity of AST-C, AST-CC and AST-CCC, inter-molt crabs (∼65 mm carapace width) were ice-anaesthetized and rapidly decerebrated before removing all limbs and the dorsal carapace to expose the heart and pericardial cavity. The preparation was then fitted into a bowl lined with tissue, to provide a stable saline-flooded environment. The heart was connected to a force transducer (MLT0210/A) via a micro-fishing hook (size 28) and fine nylon (0.08 mm) monofilament. Connection to a PC with Chart 4.0 software was via a Bridge Pod (ML301) and Powerlab 4/20 (AD Instruments, Castle Hill, NSW, Australia). Transducer gain was set at maximum sensitivity (200 μV). Heart preparations were initially perfused with Carcinus physiological saline ([Saver et al., 1999]) at room temperature (20°C). Once a stable output was achieved, hearts were then perfused by sequentially adding approximately 2 ml saline containing AST-C, AST-CC and AST-CCC (GenScript Biotech, Piscataway, NJ, USA), and finally adding CCAP as a positive control (all peptides were at a concentration of 10^−6 mol l^−1 in saline). Each peptide addition was followed by extensive washout with saline, recording heart rate and beat amplitude for approximately 2 min after application of each peptide.
# [2] = test system: putative AST-C receptor candidates TR71151a-d other than AST-CR(d); assay: Aequorin luminescence receptor assay, other putative AST-C receptor candidates; format: cell-based, Carcinus maenas; details: each candidate transiently expressed in CHO-K1-Aeq cells; 1µM peptide (Fig. S3)
# Text: as §1, with “Positive clones were cultured overnight in LB broth with 100 µg ml^−1 ampicillin at 37°C and plasmids extracted using a Qiagen Plasmid Midiprep kit according to the manufacturer's instructions.” left out
# Chinese hamster ovary (CHO-K1) cells containing stably expressed apoaequorin (Perkin Elmer, Boston, MA) and either Gα16 or Gq subunit (control cells) were cultured in Dulbecco's Modified Eagle Medium (DMEM) F-12 Nutrient Mixture Glutamax (Gibco®) supplemented with 10% fetal bovine serum (Gibco®). […] Cell suspensions were gently stirred and injected (50 µl per well) using a Mithras LB 940 microplate reader (Berthold Technologies, Bad Wildbad, Germany) and light emission (Ca^2+ response recorded for 30 s). Cells were then lysed by injection of 50 µl per well 0.3% Triton-X in BSA medium, and light emission recorded for a further 10 s to measure total Ca^2+ response. […]
# Y-organs = assay: Y-organ in vitro bioassay of ecdysteroid synthesis (ecdysteroid RIA); format: cell-based, Carcinus maenas; details: native MIH 2 nmol l^−1, 24 h incubation, positive control
# Description: To determine the possible activity of AST-C and/or AST-CC on ecdysteroid synthesis, Y-organs (YOs) were dissected from ice-anaesthetized crabs and used in the in vitro bioassay as detailed previously ([Webster, 1986]). Following 24 h incubations, culture medium was aspirated and snap frozen in liquid nitrogen prior to ecdysteroid RIA. YOs were sonicated in PBS, centrifuged (13,000 g for 5 min at room temperature) and assayed for protein concentration using a BCA protein kit (EMD Millipore, Burlington MA, USA). Protein concentrations (BSA standards) were used to normalize ecdysteroid synthesis between YO pairs.
# Ecdysteroid RIAs were performed on 20 µl aliquots of culture medium using the following conditions: 100 μl 1:2000 anti-ecdysteroid serum HB-2E (a kind gift from R. D Watson, Alabama University), 100 µl H^−3 Ponasterone A [24, 25, 26, 27-3H (N), 3.5 TBq mmol^−1 (American Radiochemical Company, St Louis, MO, USA)] at 28,000 dpm per tube. 25-Deoxyecdysone (a kind gift from Prof. R. Lafont, Sorbonne University, Paris) was used as a standard (range 2500–19.5 pg per tube), and unknowns and standards were assayed in triplicate. Bound was separated from free using 50 µl per tube immobilized donkey anti-rabbit nitrocellulose suspension (Sac-Cel), as detailed for the AST-C RIA. Pellets were resuspended in 600 µl Hi-Safe 3 (Perkin Elmer) prior to counting. Using this RIA, both ecdysone and 25-deoxyecdysone (the two ecdysteroids synthesized by C. maenas YOs) were equally recognized.
substance,measurement,setting,value
"AGCKNFFWKTFTSC [somatostatin, vertebrate homolog/paralog of AST-C, reference compound]",Activation of AST-CRd at saturating doses,"AST-CRd (TR71151); 10, 1 µmol l^−1 peptide, quadruplicate",failed to activate; also recorded: without effect
"SYWKQCAFNAVSCF-NH2 (disulfide 6-13 (inferred)) [AST-CCC, C. maenas AST-C family neuropeptide, C-terminally amidated; synthetic (GenScript)]",Activation of AST-CRd at extremely high doses,AST-CRd (TR71151); 10^−6 mol l^−1,slight activation
same,Luminescence response relative to the maximum response elicited by 10 µmol l^−1 AST-CC,"AST-CRd (TR71151); peptide at 10 µmol l^−1, quadruplicate",less than 20%
same,Effect on heartbeat amplitude,[1],entirely unaffected
same,Effect on heartbeat frequency (heart rate),[1],entirely unaffected
same,Activation of the other candidate AST-C receptors,[2],not activated
"crustacean cardioactive peptide [CCAP, reference compound]",Effect on heartbeat amplitude,[1],increased amplitude
same,Effect on heartbeat frequency (heart rate),[1],more than doubled
molt inhibiting hormone [reference compound],Effect on ecdysteroid synthesis by Y-organs,Y-organs,large inhibitory effect
same,Effect on ecdysteroid synthesis by Y-organs,Y-organs; listed as MIH,full inhibition
